In US8937089B2, “Synergistic mixtures of anthranilamide invertebrate pest control agents” (priority 2004, dated 2015):

Tested on: beet armyworm (Spodoptera exigua)
Test: Test I: control of beet armyworm, spray on tomato plants, excised leaves, % mortality and % feeding at 72 hours
Format: in vivo
Procedure: For evaluating control of beet armyworm (Spodoptera exigua), methomyl was in the liquid formulation as Lannate® LV (29% of active ingredient). Compound 1 was in a water dispersible granules (WDG) formulation with 35% active ingredient. The test compounds were dissolved in water. Enough water was added to make 100 ppm of active ingredient for each compound. Serial dilutions were made to obtain the appropriate concentrations. To obtain the desired mixture concentrations of each compound, twice the desired concentration of each of the two mixture partner compounds were mixed together in equal volumes.
The diluted solutions of the test compounds were sprayed to run-off on three-week-old tomato plants. The plants were placed on a rotating turntable sprayer (10 rpm). Test solutions were applied using a flat fan air-assisted nozzle (Spraying Systems 122440) at 10 psi (69 kPa). After each treated plant had dried, leaves were excised from the treated plant. The leaves were cut into pieces, which were placed singly into 5.5 cm-by-3.5 cm cells of a sixteen-cell plastic tray. Each cell contained a 2.5-cm square of moistened chromatography paper to prevent desiccation. One insect was placed in each cell. There two trays per treatment. […]

Compound: CNC(=O)c1cc(Cl)cc(C)c1NC(=O)c1cc(Br)nn1-c1ncccc1Cl [Compound 1, 3-bromo-N-[4-chloro-2-methyl-6-[(methylamino)carbonyl]phenyl]-1-(3-chloro-2-pyridinyl)-1H-pyrazole-5-carboxamide]
- % feeding (Compound 1 0.022 ppm): 9%
- % feeding (Compound 1 0.041 ppm): 6%
- % feeding (Compound 1 0.163 ppm): 2%
- % feeding (Compound 1 0.209 ppm): 2%
- % feeding (Compound 1 0.30 ppm): 1%
- % feeding (Compound 1 0.60 ppm): 1%
- mortality at 0.022 ppm (Spodoptera exigua, Compound 1 0.022 ppm, read-out: % mortality (observed)): 13%
- mortality at 0.041 ppm (Spodoptera exigua, Compound 1 0.041 ppm, read-out: % mortality (observed)): 44%
- mortality at […] (Spodoptera exigua, Compound 1 0.076 ppm, read-out: % mortality (observed)): 25%
- mortality at 0.163 ppm (Spodoptera exigua, Compound 1 0.163 ppm, read-out: % mortality (observed)): 35%
- mortality at 0.209 ppm (Spodoptera exigua, Compound 1 0.209 ppm, read-out: % mortality (observed)): 47%
- mortality at 0.3 ppm (Spodoptera exigua, Compound 1 0.30 ppm, read-out: % mortality (observed)): 59%
- mortality at 0.6 ppm (Spodoptera exigua, Compound 1 0.60 ppm, read-out: % mortality (observed)): 75%
